Tests used:
[1] = test system: NCI-H226 (BAP1mut, CDKN2Adel, FGFR high) xenograft; experiment: NCI-H226 xenograft model (Examples 18-19); type: in vivo, mice; conditions: Compound 2-5 50 mg/kg, orally, once per day, 35 days
Protocol: (§1) A subcutaneous xenograft tumor model of human tumor immunodeficient mice was established by cell inoculation: tumor cells in logarithmic growth phase were collected, counted, resuspended in 1×PBS, and the cell suspension concentration was adjusted to 2.5-5×10^7/mL. The tumor cells were inoculated subcutaneously in the right side of immunodeficient mice with a 1 ml syringe ([…]), 5-10×10^6/0.2 mL/mouse. All animal experiments were strictly in accordance with the specifications for the use and management of experimental animals in GenePharma Co., Ltd. and Suzhou Ascentage Pharma Co., Ltd. The calculation of relevant parameters refers to the Chinese NMPA “Guidelines for Non-Clinical Research Techniques of Cytotoxic Anti-tumor Drugs”.
Animal body weight and tumor size were measured twice weekly during the experiment. The state of the animal and the presence or absence of death were observed every day. The growth of tumor and the effects of treatment on normal behavior of animals were monitored routinely, specifically involving experimental animal activity, feeding and drinking, weight gain or loss, eyes, clothing hair and other abnormalities. The deaths and clinical symptoms observed during the experiment were recorded in the raw data. […] The plasma and tumor samples were frozen at −80° C. for ready-to-use.
(§2) Tumor volume (TV) is calculated as: TV=a×b^2/2, wherein a and b represent the length and width of the tumor to be measured, respectively.
(§3) The relative tumor volume (RTV) is calculated as: RTV=Vt/V1, wherein V1 is the tumor volume at the start of grouping and administration, and Vt is the tumor volume measured on the t day after administration. […]
Use of mRECIST (Gao et al., 2015) measured tumor responses included stable disease (SD), partial tumor regression (PR), and complete regression (CR), determined by comparing tumor volume change at day t to its baseline: tumor volume change (%)=(Vt−V1)/V1. […] For each time t, the average of tumor volume changes from t=1 to t was also calculated. […] Body weight of animals were monitored simultaneously. […]

[2] = test system: BAP1 mut mesothelioma PDX model; experiment: BAP1 mut mesothelioma PDX model (Examples 15-17); type: in vivo, mice; conditions: Compound 2-5 50 mg/kg, orally, once per day, 28 days
Protocol: as §1
(§4) Animal body weight and tumor size were measured twice weekly during the experiment. The state of the animal and the presence or absence of death were observed every day. The growth of tumor and the effects of treatment on normal behavior of animals were monitored routinely, specifically involving experimental animal activity, feeding and drinking, weight gain or loss, eyes, clothing hair and other abnormalities. The deaths and clinical symptoms observed during the experiment were recorded in the raw data. All operations for administration and measurement of mouse body weight and tumor volume were performed in a clean bench. According to the requirements of the experimental protocol, after the end of the last administration, plasma and tumor tissues were collected, weighed and photographed. The plasma and tumor samples were frozen at −80° C. for ready-to-use.
as §2
(§5) The relative tumor volume (RTV) is calculated as: RTV=Vt/V1, wherein V1 is the tumor volume at the start of grouping and administration, and Vt is the tumor volume measured on the t day after administration.
(§6) The evaluation index of anti-tumor activity is the relative tumor proliferation rate T/C (%), and the calculation formula thereof is: relative tumor proliferation rate T/C (%)=(TRTV/CRTV)×100%, TRTV is the RTV of treatment group, CRTV is the RTV of solvent control group.
(§7) A dose of drug is considered to be severely toxic if the body weight of mouse is reduced by more than 20% or the number of drug-related deaths exceeds 20%.
(§8) According to the description by Clarke R., Issues in experimental design and endpoint analysis in the study of experimental cytotoxic agents in vivo in breast cancer and other models [J]. Breast Cancer Research & Treatment, 1997, 46(2-3): 255-278, synergy analysis was evaluated using the following formula: synergy factor=((A/C)×(B/C))/(AB/C); A=RTV value of drug A alone group; B=RTV value of drug B alone group; C=RTV value of the solvent control group, and AB=RTV value of the A and B combination group.
In this experiment, a BAP1 mut mesothelioma PDX model (Lide Biotech) was established to evaluate the anti-tumor effect of Compound 73. The dosing regimen was as follows: • Compound 73: 50 mg/kg, orally, once per day, for a total of 28 days; • Compound 73: 100 mg/kg, orally, once per day, for a total of 28 days;
In this experiment, a BAP1 mut mesothelioma PDX model (Lide Biotech) was established to evaluate the anti-tumor effect of Compound 73 in combination with Compound A-1. […]

Pfeiffer Cell line = experiment: Cell proliferation, Pfeiffer cell line; type: cell-based; conditions: Homo sapiens, anti-proliferative IC50, Table 4A
Protocol: (§9) Analysis of Cell Proliferation:
(§10) To assess the effect of PRC2 inhibition on cell growth, cells were seeded in 96-well cell culture plates at a density of 2 000-3 000 cells/well in 200 μL of culture medium, and treated with serially diluted compounds for 7 days at 37° C. in an atmosphere of 5% CO2. Cell growth was evaluated by a […] WST-8 assay (Dojindo Molecular Technologies) using a Tecan Infinite M1000 multimode microplate reader (Tecan, Morrisville, NC). The WST-8 reagent was added to the plate, incubated for 1-4 h, and read at 450 nm. The readings were normalized to the DMSO-treated cells, and the IC50 was calculated by nonlinear regression analysis using GraphPad Prism 6 software

EED (1-441)-His protein = molecular target: T1, EED (1-441)-His protein (Homo sapiens, UniProt O75530); experiment: EED-H3K27Me3 peptide competition binding assay by AlphaScreen; conditions: Table 4A, read-out: Alpha screen
T1 construct: 20 nM EED (1-441)-His protein
T1 sequence (O75530 whole entry): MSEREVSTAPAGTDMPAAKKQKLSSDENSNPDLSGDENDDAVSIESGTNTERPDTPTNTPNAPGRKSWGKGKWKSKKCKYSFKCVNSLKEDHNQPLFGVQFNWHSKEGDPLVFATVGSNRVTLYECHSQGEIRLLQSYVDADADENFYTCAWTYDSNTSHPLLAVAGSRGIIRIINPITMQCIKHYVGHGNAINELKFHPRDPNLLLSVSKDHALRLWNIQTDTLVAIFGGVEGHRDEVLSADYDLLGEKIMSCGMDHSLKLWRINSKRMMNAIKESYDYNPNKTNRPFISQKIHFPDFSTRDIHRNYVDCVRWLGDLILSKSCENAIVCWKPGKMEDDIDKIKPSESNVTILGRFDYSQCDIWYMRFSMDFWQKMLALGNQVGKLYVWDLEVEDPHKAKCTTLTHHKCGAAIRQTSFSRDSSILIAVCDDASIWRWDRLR
How it was run: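 Readout was AlphaScreen emission at 615 nm after 680 nm excitation, with 10 μg/ml final each of streptavidin donor and nickel chelate acceptor beads, 1 h at RT in the dark. Beforehand, compound met the His-tagged EED(1-441) for 15 min and then biotinylated H3K27Me3(19-33) peptide for 30 min; both were added as 20 nM solutions, buffer 25 mM HEPES pH 8, Tween-20, BSA. Percent activity left was fitted to give IC50.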

[3] = test system: human B cell lymphoma cell KARPAS422; experiment: Cell proliferation (WST-8), KARPAS422, 7 days; type: cell-based; conditions: KARPAS-422, 168 h, WST-8, Table 4A, read-out: Karpas Cell line
Protocol: as §9, §10

LnCap prostate xenograft = experiment: Subcutaneous LnCap prostate xenograft model (Example 25); type: in vivo, mice; conditions: day 17
Protocol: as §1, §4, §2, §5, §6, §7, §8
(§11) In this experiment, subcutaneous LnCap prostate xenograft model was established to evaluate the anti-tumor effect of Compound 73 in combination with Compound C. The dosing regimen was as follows: • Compound C: 100 mg/kg, orally, every other day, for day 1-day 9; 50 mg/kg, orally, every other day, for day 10-day 28; • Compound 73: 100 mg/kg, orally, once per day, for a total of 28 days;
(§12) The dosing regimen of each drug in the dosing regimen for the combination is the same as the dosing regimen for the single drug, for a total of 28 days.

[4] = test system: H226 (BAP1mut, UHRF1high, TP53WT, CDKN2Adel, FGFRhigh) subcutaneous mesothelioma xenograft; experiment: H226 subcutaneous mesothelioma xenograft model (Example 22); type: in vivo, mice
Protocol: as §1, §4, §2, §5, §6
(§13) Change of body weight (%)=(measured body weight-body weight at the start of grouping)/body weight at the start of grouping×100%.
as §7
In this experiment, H226 (BAP1mut, UHRF1high, TP53WT, CDKN2Adel, FGFRhigh) subcutaneous mesothelioma xenograft model was established to evaluate the anti-tumor effect of Compound 73 in combination with Compound C. The dosing regimen was as follows: • Compound C: 50 mg/kg, orally, every other day, for a total of 39 days; • Compound 73: 50 mg/kg, orally, once per day, for a total of 39 days; • Compound 73: 100 mg/kg, orally, once per day, for a total of 39 days.

[5] = test system: NCI-H28(X1) (BAP1mut, UHRF1high, TP53WT, CDKN2Adel, FGFRlow, NF2WT) subcutaneous mesothelioma xenograft; experiment: NCI-H28(X1) subcutaneous mesothelioma xenograft model (Example 23); type: in vivo, mice; conditions: Compound C 50 mg/kg orally every other day, Compound 73 100 mg/kg orally once per day, 28 days, alone or combined
Protocol: as §1, §4, §2, §5
The evaluation index of anti-tumor activity is the relative tumor proliferation rate T/C (%), and the calculation formula thereof is: relative tumor proliferation rate T/C (%)=(TRTV/CRTV)×100%, TRTV is the RTV of treatment group, CRTV is the RTV of solvent control group. […]
as §8, with “group. […]” for “group.”

22RV1 prostate xenograft = experiment: Subcutaneous 22RV1 prostate xenograft model (Example 24); type: in vivo, mice
Protocol: as §1, §4, §2, §5, §6, §13, §7, §8
as §11, with “22RV1” for “LnCap”, “a total of 28 days;” for “day 1-day 9; 50 mg/kg, orally, every other day, for day 10-day 28;”
as §12

[6] = test system: BAP1 mut mesothelioma PDX model; experiment: Subcutaneous BAP1 mut mesothelioma PDX model (Example 21); type: in vivo, mice; conditions: Compound 73 100 mg/kg orally once per day, Compound C 50 mg/kg orally every other day, 36 days; alone or combined
Protocol: as §1, §4, §2, §5, §6, §13, §7
In this experiment, subcutaneous BAP1 mut mesothelioma PDX model was established (Lide Biotech) to evaluate the anti-tumor effect of Compound 73 in combination with Compound C. […]

[7] = test system: malignant pleural mesothelioma (MPM) PDX model (FGFR1high; BAP1mut); experiment: Subcutaneous malignant pleural mesothelioma (MPM) PDX model (Example 20); type: in vivo, mice; conditions: Compound 73 100 mg/kg, Compound C 50 mg/kg, each orally every other day, 76 days; alone or combined
Protocol: as §1, §4, §2, §3
Change of body weight (%)=(measured body weight-body weight at the start of grouping)/body weight at the start of grouping×100%. […]
as §8, with “group. […]” for “group.”

With `Cc1cc(Nc2ncc(Cl)c(Nc3ccccc3S(=O)(=O)C(C)C)n2)c(OC(C)C)cc1C1=CCN(C2CCOCC2)CC1` [Compound 2-5, 5-chloro-N^2-(2-isopropoxy-5-methyl-4-(1-(tetrahydro-2H-pyran-4-yl)-1,2,3,6-tetrahydropyridin-4-yl)phenyl)-N^4-(2-(isopropylsulfonyl)phenyl)pyrimidine-2,4-diamine] the “inhibition of tumor growth (in words)” value [1] was “almost not effective in inhibiting tumor growth” and the “inhibition of tumor growth (in words)” value [2] was “not effective in inhibiting tumor growth”.
`O=C1c2ncn3c(NCc4c(F)ccc5c4CCO5)ncc(c23)-c2sccc2CN1C1CC1` [Compound 87, 4-cyclopropyl-11-(((5-fluoro-2,3-dihydrobenzofuran-4-yl)methyl)amino)-4,5-dihydro-3H-8-thia-2,4, 10,11a-tetraazacyclopenta[4,5]cycloocta[1,2,3-cd] inden-3-one] gave an IC50 (Pfeiffer Cell line) of 0.018 nM, an IC50 (EED (1-441)-His protein) of 11.1 nM and an IC50 [3] of 8.67 nM.
With `CCN1[C@@H](C(=O)NC23CCC(C(=O)O)(CC2)CC3)[C@H](c2cccc(Cl)c2F)[C@]2(C(=O)Nc3cc(Cl)ccc32)C12CCCCC2` [Compound C] the “RTV@ D 17” value (LnCap prostate xenograft; LnCap xenograft, Compound 73 100 mg/kg orally once per day, Compound C 100 mg/kg/50 mg/kg orally every other day) was 2.57 ± 0.24, the “T/C(%) @ D 17” value (LnCap prostate xenograft; LnCap xenograft, Compound 73 100 mg/kg, Compound C 100 mg/kg/50 mg/kg) was 57.46% and the T/C value (LnCap prostate xenograft; Compound C 100 mg/kg every other day day 1-9 then 50 mg/kg day 10-28, Compound 73 100 mg/kg once per day, orally, alone or combined) was 57.46%. The “T/C (%) @ D 39” value ([4]; Compound C 50 mg/kg orally every other day, Compound 73 50 mg/kg orally once per day, alone or combined) was 49.45%, the “RTV @ D 39” value ([4]; Compound C 50 mg/kg orally every other day, Compound 73 50 mg/kg orally once per day, alone or combined, mean ± SEM) was 3.94 ± 0.69 and the “antitumor activity (in words)” value ([4]; single agents, 39 days (FIG. 10)) was “moderate antitumor activity”. The “T/C (%) @ D 29” value [5] was 92.16%, the “RTV@ D 29” value ([5]; mean ± SEM) was 14.06 ± 1.22 and the “RTV@ D 26” value (22RV1 prostate xenograft; 22RV1 xenograft, day 26, Compound 73 100 mg/kg orally once per day, Compound C 50 mg/kg (table) orally every other day) was 14.81 ± 4.35. For the same compound, the “T/C(%) @ D 26” value (22RV1 prostate xenograft; 22RV1 xenograft, day 26, Compound 73 100 mg/kg, Compound C 50 mg/kg (table)) was 93.39%, the “RTV@ D 29” value (22RV1 prostate xenograft; 22RV1 xenograft, day 29) was 18.54 ± 7.96 and the T/C value (22RV1 prostate xenograft; day 26, Compound C 100 mg/kg orally every other day, Compound 73 100 mg/kg orally once per day, alone or combined) was 93.39%. The “RTV @ D 36” value [6] was 8.04, the “T/C (%) @ D 36” value [6] was 55.17% and the “RTV @ D 76” value [7] was 3.47. The “T/C (%) @ D 76” value [7] was 60%.

Source: patent publication US20240316051A1, “A PHARMACEUTICAL COMBINATION AND USE THEREOF” (Ascentage Pharma (Suzhou) Co., Ltd., priority 2021, published 2024)
